In US20240408119A1, “DELIVERY OF THERAPEUTIC ALKALOID COMPOUNDS” (priority 2022, published 2024):
Where two headings read alike, the source gives them in different places.

Tests used:
[1] = Plasma Stability Assay (Example A3), human plasma; assay type: in vitro ADME; details: prodrug remaining, 10 μM, 37° C.
Text: (§1) The data is represented in the table below.

[2] = Metabolic Stability in Human Hepatocytes; assay type: in vitro ADME; details: cryopreserved human hepatocytes, 37° C.
Procedure: A 2.5 uL aliquot of 100 μM test compound was incubated with 247.5 uL of cryopreserved hepatocytes suspended in serum-free incubation medium at 5×10^5 viable cells/mL. The mixture was incubated at 37° C. and shaken at 500 rpm for the designated time points (0.5, 15, 30, 60, 90, or 120 min). At each time point, 25 μL aliquot of incubation mixture was transferred to 125 μL of cold acetonitrile containing internal standard, followed by centrifugation for 30 min at 3,220 g. 100 μL of supernatant was mixed with 100 μL of distilled water for analysis by LC-MS/MS. Peak areas were determined from extracted ion chromatograms and in vitro half-life (t1/2) was determined from the concentration vs time regression slope, in vitro t1/2=0.693/k. Conversion of the in vitro t1/2 (in min) into the in vitro intrinsic clearance (in vitro CLint, in μL/min/10^6 cells) is done using: in vitro CLint=kV/N.

[3] = Plasma Stability Assay (Example A3), rat plasma; assay type: in vitro ADME; details: prodrug remaining, 10 μM, 37° C.
Text: as §1

[4] = Hydrolysis Assay - Condition 2 (DI Water); assay type: physicochemical; details: 25° C., 0.5 mM
Procedure: 50 μL of compound (10 mM) in DMSO was diluted into 950 μL of DI water to a final concentration of 0.5 mM. The hydrolysis kinetics were conducted at 25° C. and measured by LCMS at a certain time interval.
(§2) The corresponding LCMS chromatogram were recorded and the conversions were calculated by integration of each peak.
(§3) • 1) LCMS spectra were obtained using Agilent 1200G1956A or SHIMADZU LCMS-2020. Standard LCMS conditions were as follows (running time 1.55 minutes): • Acidic condition: Mobile Phase A: 0.0375% TFA in water (v/v). Mobile Phase B: 0.01875% TFA in acetonitrile (v/v); Column: Kinetex EVO C18 30*2.1 mm, 5 μm. • Basic condition: Mobile Phase A: 0.025% NH3·H2O in water (v/v). Mobile Phase B: Acetonitrile; Column: Kinetex EVO C18 2.1×30 mm, 5 μm. • 2) Conversion (%)=peak area 1/(peak area 1+peak area 2)*100%, peak area 1 is the integration of hydrolyzed product, peak area 2 is the integration of starting material.

[5] = assay type: in vitro ADME, mouse; details: prodrug remaining, 5 μM, 37° C.
Procedure: (§4) Each test was carried out in duplicate for each time point; 0 min, 15 min, 30 min, 60 min, 120, 240 min. […]

[6] = Hydrolysis Assay - Condition 1 (SGF); assay type: physicochemical; details: SGF with pepsin pH 1.5, 37° C., 0.5 mM
Procedure: 50 μL of compound (10 mM) in DMSO was diluted into 950 μL of Simulated Gastric Fluid (SGF) with pepsin (pH 1.5) to a final concentration of 0.5 mM. The hydrolysis kinetics were conducted at 37° C. and measured by LCMS at a certain time interval.
as §2, §3

[7] = assay type: in vitro ADME, human; details: prodrug remaining, 5 μM, 37° C.
Procedure: as §4

**Q.** For `COc1ccc([C@@]23CCC(OP(=O)(O)OCOC(=O)C(C)(C)C)=C[C@@H]2N(C)CC3)cc1OC` [Compound 409, [[(3aS,7aS)-3a-(3,4-dimethoxyphenyl)-1-methyl-3,4,5,7a-tetrahydro-2H-indol-6-yl]oxy-hydroxy-phosphoryl]oxymethyl 2,2-dimethylpropanoate], which “Human Plasma Prodrug (%)” value ([1]; 0 min) is on record?
**A.** 100.0%

**Q.** What about the “Human Plasma Prodrug (%)” value ([1]; 10 min) of the same compound?
**A.** >99%

**Q.** What about the “Human Plasma Prodrug (%)” value ([1]; 30 min) of the same compound?
**A.** 95.2%

**Q.** What about the “Human Plasma Prodrug (%)” value ([1]; 60 min) of the same compound?
**A.** 93.0%

**Q.** And the “Human Plasma Prodrug (%)” value ([1]; 120 min)?
**A.** 87.3%

**Q.** And the “Human Plasma Prodrug (%)” value ([1]; 240 min)?
**A.** 75.8%

**Q.** What about the half-life at 1 μM [2] of the same compound?
**A.** 25.7 h

**Q.** And the hepatocyte CLint at 1 μM [2]?
**A.** 1.1 µL/min/1e6 cells

**Q.** And the “Rat Plasma Prodrug (%)” value ([3]; 0 min)?
**A.** 100.0%

**Q.** What about the “Rat Plasma Prodrug (%)” value ([3]; 10 min) of the same compound?
**A.** 89.9%

**Q.** And the “Rat Plasma Prodrug (%)” value ([3]; 30 min)?
**A.** 81.2%

**Q.** And the “Rat Plasma Prodrug (%)” value ([3]; 60 min)?
**A.** 71.0%

**Q.** And the “Rat Plasma Prodrug (%)” value ([3]; 120 min)?
**A.** 44.5%

**Q.** What about the “Rat Plasma Prodrug (%)” value ([3]; 240 min) of the same compound?
**A.** 22.7%

**Q.** With `COc1ccc([C@@]23CCC(OP(=O)(O)OCOC(=O)C(C)C)=C[C@@H]2N(C)CC3)cc1OC` [Compound 408, [[(3aS,7aS)-3a-(3,4-dimethoxyphenyl)-1-methyl-3,4,5,7a-tetrahydro-2H-indol-6-yl]oxy-hydroxy-phosphoryl]oxymethyl 2-methylpropanoate] as the compound, how does the “Human Plasma Prodrug (%)” value ([1]; 0 min) read?
**A.** 100.0%

**Q.** And the “Human Plasma Prodrug (%)” value ([1]; 10 min)?
**A.** 94.2%

**Q.** And the “Human Plasma Prodrug (%)” value ([1]; 30 min)?
**A.** 82.6%

**Q.** What about the “Human Plasma Prodrug (%)” value ([1]; 60 min) of the same compound?
**A.** 69.1%

**Q.** What about the “Human Plasma Prodrug (%)” value ([1]; 120 min) of the same compound?
**A.** 45.4%

**Q.** And the “Human Plasma Prodrug (%)” value ([1]; 240 min)?
**A.** 23.5%

**Q.** What about the half-life at 1 μM [2] of the same compound?
**A.** 3.67 h

**Q.** What about the hepatocyte CLint at 1 μM [2] of the same compound?
**A.** 6.4 µL/min/1e6 cells

**Q.** And the “Rat Plasma Prodrug (%)” value ([3]; 0 min)?
**A.** 100.0%

**Q.** And the “Rat Plasma Prodrug (%)” value ([3]; 10 min)?
**A.** 63.8%

**Q.** What about the “Rat Plasma Prodrug (%)” value ([3]; 30 min) of the same compound?
**A.** 29.2%

**Q.** What about the “Rat Plasma Prodrug (%)” value ([3]; 60 min) of the same compound?
**A.** 8.2%

**Q.** What about the “Rat Plasma Prodrug (%)” value ([3]; 120 min) of the same compound?
**A.** 0.8%

**Q.** What about the “Rat Plasma Prodrug (%)” value ([3]; 240 min) of the same compound?
**A.** 0.0%

**Q.** What does the source list for `COc1ccc([C@@]23CCC(OC(=O)N(C)C)=C[C@@H]2N(C)CC3)cc1OC` [Compound 324, [(3aS,7aS)-3a-(3,4-dimethoxyphenyl)-1-methyl-3,4,5,7a-tetrahydro-2H-indol-6-yl] N,N-dimethylcarbamate]?
**A.** Condition 2 Conversion (%) ([4]; 1 min): 0%; Condition 2 Conversion (%) ([4]; 5 min): 0%; Condition 2 Conversion (%) ([4]; 30 min): 0%; Condition 2 Conversion (%) ([4]; 1 h): 0%; Condition 2 Conversion (%) ([4]; 4 h): 0%; Condition 2 Conversion (%) ([4]; 24 h): 0%; Mouse Plasma Prodrug (%) ([5]; 0 min): 100.0%; Mouse Plasma Prodrug (%) ([5]; 15 min): 97.4%; Mouse Plasma Prodrug (%) ([5]; 30 min): 94.4%; Mouse Plasma Prodrug (%) ([5]; 60 min): 94.9%; Mouse Plasma Prodrug (%) ([5]; 120 min): 92.6%; Mouse Plasma Prodrug (%) ([5]; 240 min): 88.9%; Condition 1 Conversion (%) ([6]; 1 min): 0%; Condition 1 Conversion (%) ([6]; 5 min): 0%; Condition 1 Conversion (%) ([6]; 30 min): 0%; Condition 1 Conversion (%) ([6]; 1 h): 0%; Condition 1 Conversion (%) ([6]; 4 h): 0%; Condition 1 Conversion (%) ([6]; 24 h): 0%; Human Plasma Prodrug (%) ([7]; 0 min): 100.0%; Human Plasma Prodrug (%) ([7]; 15 min): 98.2%; Human Plasma Prodrug (%) ([7]; 30 min): 98.7%; Human Plasma Prodrug (%) ([7]; 60 min): >99%; Human Plasma Prodrug (%) ([7]; 120 min): >99%; Human Plasma Prodrug (%) ([7]; 240 min): 96.5%
